For one test, the target named is T1, MAT2A homodimer (Homo sapiens, UniProt P31153).
T1 construct: inferred from Ni sepharose purification with imidazole elution; made in house; host or cells: Sf9 insect cells, baculovirus (Bac to Bac, pFASTBAC1)
The experiment in a line: MAT2A inhibition (biochemical, liberated phosphate, PiColorLock Gold). As to conditions: recombinant MAT2A homodimer; IC50 bin with Max Inh.; read-out: Enzyme Inhibition Bin. The gist of the method: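 Enzyme at 4 μg/mL and compound equilibrated 60 min at 25 °C, then 60 min reaction after adding substrate mix (500 μM ATP, 400 μM methionine). Released phosphate quantified by colorimetric kit against a phosphate standard curve to give IC50. Secondary format used 1 μg/mL enzyme with 5 h incubation.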

Test [1] concerns SAM in HCT116 human colon carcinoma cell line with MTAP gene deleted (MTAP −/−). The experiment in a line: Cellular assay of target engagement (SAM), LC-MS/MS, 72 hrs. The class given is cell-based. As to conditions: HCT-116, IC50 bin with Max Inh., read-out: Cell 72 h SAM Inhibition (MTAP −/−). The gist of the method: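 SAM levels were quantified by LC-MS/MS (m/z 399.2→250.1, d3-SAM internal standard) from cold methanol/acetic acid extracts, yielding IC50. Compound was applied as a 10-point 3-fold series for 72 hrs to MTAP −/− HCT116 cells seeded 24 hours before.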

The test system of a further test is HCT116 MTAP−/−. The experiment in a line: Inhibition of cellular proliferation, 4 days, Cell Titer Glo, HCT116 MTAP−/−. The class given is cell-based. As to conditions: Homo sapiens, HCT-116, 96 h, IC50 bin with Max Inh., read-out: 4 Day Relative Growth Inhibition (MTAP −/−). Put shortly:
(§1)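 IC50 derived from blank-corrected ATP luminescence (Cell Titer Glo) expressed relative to within-plate 0.2% DMSO wells. Compound, as a 10-point 3-fold series, was added 24 h after seeding the MTAP+/+ or MTAP−/− HCT116 cells and incubated 4 days at 37° C./5% CO2.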

The test system of another test is HCT116 MTAP+/+. The experiment in a line: Inhibition of cellular proliferation, 4 days, Cell Titer Glo, HCT116 MTAP+/+. The test is classed as cell-based. As to conditions: Homo sapiens, HCT-116, 96 h, IC50 bin with Max Inh., read-out: 4 Day Relative Growth Inhibition (MTAP +/+). The gist of the method:
as §1

T1 sequence (P31153 whole entry): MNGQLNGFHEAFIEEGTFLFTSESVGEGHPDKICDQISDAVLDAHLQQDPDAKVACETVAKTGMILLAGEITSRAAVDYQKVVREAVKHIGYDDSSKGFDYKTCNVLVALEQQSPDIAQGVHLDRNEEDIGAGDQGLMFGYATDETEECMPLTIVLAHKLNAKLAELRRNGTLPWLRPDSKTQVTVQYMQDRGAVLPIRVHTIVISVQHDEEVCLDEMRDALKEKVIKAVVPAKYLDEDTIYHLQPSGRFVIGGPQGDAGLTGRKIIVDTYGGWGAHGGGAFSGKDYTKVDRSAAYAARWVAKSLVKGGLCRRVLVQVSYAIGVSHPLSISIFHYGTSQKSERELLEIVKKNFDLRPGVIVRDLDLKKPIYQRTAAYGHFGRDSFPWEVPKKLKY

`Cn1cc2cc(-n3nc4c(S(N)(=O)=O)cn(CC5CC5)c4c(-c4ccc(OC(F)F)cc4)c3=O)ccc2n1` [Example 184, 5-(cyclopropylmethyl)-4-(4-(difluoromethoxy)phenyl)-2-(2-methyl-2H-indazol-5-yl)-3-oxo-3,5-dihydro-2H-pyrrolo[3,2-c]pyridazine-7-sulfonamide]: the IC50 at MAT2A homodimer was less than 100 nM; in test [1], less than 100 nM; in the test with HCT116 MTAP−/−, 100 to 1000 nM; with HCT116 MTAP+/+, more than 1000 nM.

As for `Cn1cc2cc(-n3nc4c(S(N)(=O)=O)cn(CC5CC5)c4c(-c4ccc(C5CC5)nc4)c3=O)ccc2n1` [Example 185, 5-(cyclopropylmethyl)-4-(6-cyclopropylpyridin-3-yl)-2-(2-methyl-2H-indazol-5-yl)-3-oxo-3,5-dihydro-2H-pyrrolo[3,2-c]pyridazine-7-sulfonamide], the IC50 on MAT2A homodimer was less than 100 nM; in test [1] it was 100 to 1000 nM; in the test on HCT116 MTAP−/−, 100 to 1000 nM; with HCT116 MTAP+/+, more than 1000 nM.

`Cn1cc2cc(-n3nc4ncn(CC5CC5)c4c(-c4ccc(OC(F)F)cc4)c3=O)ccc2n1` [Example 186, 5-(cyclopropylmethyl)-4-[4-(difluoromethoxy)phenyl]-2-(2-methyl-2H-indazol-5-yl)-2H,3H,5H-imidazo[4,5-c]pyridazin-3-one]: the IC50 on MAT2A homodimer was less than 100 nM; in test [1], less than 100 nM; in the test on HCT116 MTAP−/−, less than 100 nM; in the test with HCT116 MTAP+/+, 100 to 1000 nM.

As for `Cc1ccc(-c2c(=O)n(-c3ccc4nn(C)cc4c3)nc3ncn(CC4CC4)c23)cn1` [Example 187, 5-(cyclopropylmethyl)-2-(2-methyl-2H-indazol-5-yl)-4-(6-methylpyridin-3-yl)-2,5-dihydro-3H-imidazo[4,5-c]pyridazin-3-one], the IC50 at MAT2A homodimer is less than 100 nM; in test [1], 100 to 1000 nM; with HCT116 MTAP−/−, 100 to 1000 nM; with HCT116 MTAP+/+ it was more than 1000 nM.

For `Cn1cc2cc(-n3nc4ncn(CC5CC5)c4c(-c4ccc(Cl)cc4)c3=O)ccc2n1` [Example 188, 4-(4-chlorophenyl)-5-(cyclopropylmethyl)-2-(2-methyl-2H-indazol-5-yl)-2,5-dihydro-3H-imidazo[4,5-c]pyridazin-3-one], the IC50 on MAT2A homodimer is less than 100 nM; in test [1], less than 100 nM; in the test on HCT116 MTAP−/−, less than 100 nM; in the test on HCT116 MTAP+/+ it was 100 to 1000 nM.

As for `Cn1cc2cc(-n3nc4ncn(CC5CC5)c4c(-c4ccc(OC(F)F)nc4)c3=O)ccc2n1` [Example 189, 5-(cyclopropylmethyl)-4-(6-(difluoromethoxy)pyridin-3-yl)-2-(2-methyl-2H-indazol-5-yl)-2,5-dihydro-3H-imidazo[4,5-c]pyridazin-3-one], the IC50 on MAT2A homodimer was less than 100 nM; in test [1], 100 to 1000 nM; in the test with HCT116 MTAP−/−, 100 to 1000 nM; in the test with HCT116 MTAP+/+, more than 1000 nM.

Consider `Cn1cc2cc(-n3nc4ncn(CC5CC5)c4c(-c4ccc(C5CC5)nc4)c3=O)ccc2n1` [Example 190, 5-(cyclopropylmethyl)-4-(6-cyclopropylpyridin-3-yl)-2-(2-methyl-2H-indazol-5-yl)-2,5-dihydro-3H-imidazo[4,5-c]pyridazin-3-one], for which the IC50 on MAT2A homodimer was less than 100 nM; in test [1], less than 100 nM; in the test with HCT116 MTAP−/−, less than 100 nM; in the test on HCT116 MTAP+/+, more than 1000 nM.

In the case of `Cc1nc2nn(-c3ccc4nn(C)cc4c3)c(=O)c(-c3ccc(OC(F)F)cc3)c2n1CC1CC1` [Example 191, 5-(cyclopropylmethyl)-4-(4-(difluoromethoxy)phenyl)-6-methyl-2-(2-methyl-2H-indazol-5-yl)-2,5-dihydro-3H-imidazo[4,5-c]pyridazin-3-one], the IC50 at MAT2A homodimer is less than 100 nM; in test [1], less than 100 nM; with HCT116 MTAP−/−, less than 100 nM; in the test on HCT116 MTAP+/+, more than 1000 nM.

On to `Cn1cc2cc(-n3nc4ncn(CC5CC5)c4c(-c4ccc(C5CC5)cc4)c3=O)ccc2n1` [Example 192, 5-(cyclopropylmethyl)-4-(4-cyclopropylphenyl)-2-(2-methyl-2H-indazol-5-yl)-2,5-dihydro-3H-imidazo[4,5-c]pyridazin-3-one], for which the IC50 was less than 100 nM on MAT2A homodimer, less than 100 nM in test [1], less than 100 nM with HCT116 MTAP−/− and 100 to 1000 nM in the test on HCT116 MTAP+/+.

For `COc1ccc(-c2c(=O)n(-c3ccc4nn(C)cc4c3)nc3ncn(CC4CC4)c23)cc1` [Example 193, 5-(cyclopropylmethyl)-4-(4-methoxyphenyl)-2-(2-methyl-2H-indazol-5-yl)-2,5-dihydro-3H-imidazo[4,5-c]pyridazin-3-one], the IC50 on MAT2A homodimer was less than 100 nM; in test [1], less than 100 nM; with HCT116 MTAP−/−, less than 100 nM; in the test with HCT116 MTAP+/+ it was more than 1000 nM.

As for `[2H]C([2H])([2H])Oc1ccc(-c2c(=O)n(-c3ccc4nn(C)cc4c3)nc3ncn(CC4CC4)c23)cc1` [Example 194, 5-(cyclopropylmethyl)-4-(4-(methoxy-d3)phenyl)-2-(2-methyl-2H-indazol-5-yl)-2,5-dihydro-3H-imidazo[4,5-c]pyridazin-3-one], the IC50 was less than 100 nM at MAT2A homodimer, less than 100 nM in test [1], less than 100 nM with HCT116 MTAP−/− and 100 to 1000 nM with HCT116 MTAP+/+.

Consider `COc1ccc(-c2c(=O)n(-c3ccc4nc(C)n(C)c4c3)nc3ncn(CC4CC4)c23)cc1` [Example 195, 5-(cyclopropylmethyl)-2-(1,2-dimethyl-1H-benzo[d]imidazol-6-yl)-4-(4-methoxyphenyl)-2,5-dihydro-3H-imidazo[4,5-c]pyridazin-3-one], for which the IC50 at MAT2A homodimer was less than 100 nM; in test [1], less than 100 nM; with HCT116 MTAP−/−, less than 100 nM; in the test on HCT116 MTAP+/+, more than 1000 nM.

As to `Cn1cc2cc(-n3nc4c(c(-c5ccc(OC(F)F)cc5)c3=O)n(CC3CC3)c(=O)n4C)ccc2n1` [Example 196, 5-(cyclopropylmethyl)-4-[4-(difluoromethoxy)phenyl]-7-methyl-2-(2-methyl-2H-indazol-5-yl)-2H,3H,5H,6H,7H-imidazolidino[4,5-c]pyridazine-3,6-dione], the IC50 is less than 100 nM at MAT2A homodimer, less than 100 nM in test [1], less than 100 nM in the test on HCT116 MTAP−/− and 100 to 1000 nM in the test with HCT116 MTAP+/+.

On to `Cn1cc2cc(-n3nc4[nH]c(=O)n(CC5CC5)c4c(-c4ccc(OC(F)F)cc4)c3=O)ccc2n1` [Example 197, 5-(cyclopropylmethyl)-4-(4-(difluoromethoxy)phenyl)-2-(2-methyl-2H-indazol-5-yl)-2,7-dihydro-3H-imidazo[4,5-c]pyridazine-3,6(5H)-dione], for which the IC50 is less than 100 nM at MAT2A homodimer, less than 100 nM in test [1], 100 to 1000 nM in the test with HCT116 MTAP−/− and 100 to 1000 nM in the test with HCT116 MTAP+/+.

As for `Cn1cc2cc(-n3nc4c(c(-c5ccc(C6CC6)nc5)c3=O)n(CC3CC3)c(=O)n4C)ccc2n1` [Example 198, 5-(cyclopropylmethyl)-4-(6-cyclopropylpyridin-3-yl)-7-methyl-2-(2-methyl-2H-indazol-5-yl)-2,7-dihydro-3H-imidazo[4,5-c]pyridazine-3,6(5H)-dione], the IC50 was less than 100 nM on MAT2A homodimer, less than 100 nM in test [1], less than 100 nM with HCT116 MTAP−/− and more than 1000 nM in the test on HCT116 MTAP+/+.

For the compound `Cn1cc2cc(-n3nc4c(c(-c5ccc(Cl)cc5)c3=O)n(CC3CC3)c(=O)n4C)ccc2n1` [Example 199, 4-(4-chlorophenyl)-5-(cyclopropylmethyl)-7-methyl-2-(2-methyl-2H-indazol-5-yl)-2,7-dihydro-3H-imidazo[4,5-c]pyridazine-3,6(5H)-dione], the IC50 is less than 100 nM on MAT2A homodimer, less than 100 nM in test [1], less than 100 nM with HCT116 MTAP−/− and more than 1000 nM in the test on HCT116 MTAP+/+.

For the compound `Cn1cc2cc(-n3nc4c(c(-c5ccc(C6CC6)cc5)c3=O)n(CC3CC3)c(=O)n4C)ccc2n1` [Example 200, 5-(cyclopropylmethyl)-4-(4-cyclopropylphenyl)-7-methyl-2-(2-methyl-2H-indazol-5-yl)-2,7-dihydro-3H-imidazo[4,5-c]pyridazine-3,6(5H)-dione], the IC50 on MAT2A homodimer is less than 100 nM; in test [1] it was less than 100 nM; in the test with HCT116 MTAP−/− it was less than 100 nM; in the test on HCT116 MTAP+/+ it was 100 to 1000 nM.

As to `[2H]C([2H])([2H])Oc1ccc(-c2c(=O)n(-c3ccc4nn(C)cc4c3)nc3c2n(CC2CC2)c(=O)n3C)cc1` [Example 201, 5-(cyclopropylmethyl)-4-(4-(methoxy-d3)phenyl)-7-methyl-2-(2-methyl-2H-indazol-5-yl)-2,7-dihydro-3H-imidazo[4,5-c]pyridazine-3,6(5H)-dione], the IC50 was less than 100 nM at MAT2A homodimer, less than 100 nM in test [1], less than 100 nM in the test with HCT116 MTAP−/− and 100 to 1000 nM with HCT116 MTAP+/+.

Regarding `Cc1ccc(-c2c(=O)n(-c3ccc4nn(C)cc4c3)nc3c2n(CC2CC2)c(=O)n3C)cn1` [Example 202, 5-(cyclopropylmethyl)-7-methyl-2-(2-methyl-2H-indazol-5-yl)-4-(6-methylpyridin-3-yl)-2,7-dihydro-3H-imidazo[4,5-c]pyridazine-3,6(5H)-dione], the IC50 is less than 100 nM on MAT2A homodimer, 100 to 1000 nM in test [1], 100 to 1000 nM with HCT116 MTAP−/− and 100 to 1000 nM in the test on HCT116 MTAP+/+.

These data come from patent US20220169654A1, “New Organic Compounds” (Servier Pharmaceuticals LLC, priority 2020, published 2022).
